Legend:
Klotho (kl/kl) mice = test: TM5441 treatment of Klotho mice, plasma FGF23 by ELISA; format: in vivo; details: 100 mg/kg/day in chow for 120 days, C-Term ELISA (FIG. 1)
Procedure: Four week old Klotho (kl/kl) mice (n=11) were administered TM5441 at the dose of 100 mg/kg/day for 120 days. The chow diet containing the inhibitor was prepared by mixing a homogenous suspension of TM5441 made in 0.5% Carboxy Methyl Cellulose into the powder chow diet (Harland Teklad LM-485 number 7012). The plasma levels of FGF23 was measured using an ELISA kit (Immutopics, Inc. Mouse/Rat FGF-23 (C-Term) ELISA Kit, Cat. #60-6300) by following the manufacturer's protocol.

[1] = molecular target: T1, recombinant human stable PAI-1 (Homo sapiens, UniProt P05121, K177T/M377I/N173H/Q342L); test: In vitro FGF23 proteolysis by t-PA with PAI-1 and added TM5441; format: biochemical; details: TM5441 added to t-PA + PAI-1 reaction, 4 hours at 37° C., silver stained SDS-PAGE, FIG. 3
T1 construct: purchased Molecular Innovations Inc., Novi, Mich
T1 sequence (P05121 24-402 N173H/K177T/Q342L/M377I): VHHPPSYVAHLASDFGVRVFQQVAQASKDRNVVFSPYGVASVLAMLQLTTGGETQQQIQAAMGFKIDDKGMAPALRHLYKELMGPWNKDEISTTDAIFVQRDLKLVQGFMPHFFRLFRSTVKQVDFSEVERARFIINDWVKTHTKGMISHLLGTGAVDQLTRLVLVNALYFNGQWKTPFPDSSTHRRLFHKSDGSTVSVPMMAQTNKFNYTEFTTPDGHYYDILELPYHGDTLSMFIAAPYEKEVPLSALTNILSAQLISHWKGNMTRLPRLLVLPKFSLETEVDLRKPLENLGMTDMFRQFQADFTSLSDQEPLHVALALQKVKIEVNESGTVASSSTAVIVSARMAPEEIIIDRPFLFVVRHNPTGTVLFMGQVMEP
Procedure: (§1) Recombinant human t-PA, uPA, and stable PAI-1 were obtained from Molecular Innovations Inc., Novi, Mich. Recombinant Human FGF23 was obtained from R and D Systems Inc., Minneapolis Minn.
TM5441 was obtained from Toshio Miyata, M. D., Ph.D. and Renascience, Inc. A stock solution of 2.5 mM was prepared in DMSO.
(§2) Gels were silver stained using the Pierce Silver Stain Kit from Thermo Fisher Scientific Inc. Waltham, Mass., according to the manufacturer's protocol.
(§3) Recombinant human FGF23 (1-1.5 μg) was incubated at 37° C. for 4 hours (or other time point indicated) with either recombinant human t-PA (1.1 μg) or uPA (1.1 μg), (in addition to 1.70 μg of recombinant human stable PAI-1 where indicated) in reaction buffer (25 μl final volume) containing: 50 mM Tris-HCl pH 8.0, 150 mM NaCl, 200 mM CHAPS, 0.1% PEG-8000, and 1% DMSO. To terminate the reaction, samples were incubated at 95° C. for 5 minutes in the presence of 1×NuPAGE LDS sample buffer and 1× NuPAGE sample reducing agent.

Recombinant human FGF23 = test: In vitro protease reactions: FGF23 proteolysis by t-PA or uPA (silver stained SDS-PAGE, western blot); format: biochemical
Excerpt: as §1
The 6×His tag antibody was obtained from Abcam Inc., Cambridge Mass., and the FGF23 antibody was obtained from Santa Cruz Biotechnology Inc., Dallas Tex. Secondary HRP conjugated donkey anti goat (cross-adsorbed) and goat anti-rabbit antibodies were obtained from Bethyl Laboratories Inc., Montgomery, Tex., and Molecular Innovations Inc. respectively. 4-12% NuPAGE Bis-Tris Gels, PVDF iblot gel transfer stacks, 4×NuPAGE LDS sample buffer and 10×NuPAGE sample reducing agent were from Life Technologies Inc., Carlsbad, Calif. Luminata Forte Western HRP Substrate detection reagent was from EMD Millipore Inc., Billerica, Mass.
as §2
as §3, with “To terminate the reaction, samples were incubated at 95° C. for 5 minutes in the presence of 1×NuPAGE LDS sample buffer and 1× NuPAGE sample reducing agent.” left out

| Compound | FGF23 plasma levels (Klotho (kl/kl) mice) | Effect on PAI-1-inhibited FGF23 proteolysis by t-PA [1] | FGF23 proteolytic cleavage (smaller fragments on silver stained SDS-PAGE gel) (Recombinant human FGF23; 4 hours at 37° C., FIG. 2) | FGF23 fragments by western blot (Recombinant human FGF23; t-PA, various time points at 37° C., N-term and C-term fragments, FIG. 4) |
| --- | --- | --- | --- | --- |
| O=C(COCC(=O)Nc1ccc(Cl)cc1C(=O)O)Nc1cccc(-c2ccoc2)c1 [TM5441] | markedly reduced | restored | – | – |
| t-PA: Recombinant human t-PA (tissue plasminogen activator) from Molecular Innovations Inc. | – | – | smaller fragments are generated | confirmed to be of FGF23 origin |

Reference: patent US20200046811A1, “METHODS AND COMPOSITIONS FOR MODULATING FGF23 LEVELS” (Northwestern University, priority 2014, published 2020)
